Reference: patent US10669310B2, “Peptide for cancer treatment and pharmaceutical composition containing same” (TOKUSHIMA UNIVERSITY, priority 2016, dated 2020)

Columns and labels:
[1] = system: MCF-7 cells; assay type: cell-based, human
Experimental: (§1) Human breast cancer cell line MCF-7 and mammary epithelial cell line MCF-10A were purchased from American Type Culture Collection (ATCC, Manassas, Va., USA). Breast cancer cell line KPL-3C (J. Kurebayashi, et al., Br. J. Cancer 74, 200-207 (1996)) was kindly provided by Dr. Junichi Kurebayashi (Kawasaki Medical School). All cell lines were monolayer cultured in an appropriate medium supplemented with 10% FBS. The cells were maintained at 37° C. under humidified atmosphere containing 5% CO2.
(§2) In each experiment, the respective cells were seeded in a 48-well plate (2×10^4 cells/mL), a 6-well plate (3×10^5 cells/mL), or a 10-cm dish (2×10^6 cells/10 mL). MCF-7 cells were seeded in MEM (Thermo Fisher Scientific) supplemented with 10% FBS (Nichirei Biosciences Inc., Tokyo, Japan), 1% Antibiotic/Antimycotic solution (Thermo Fisher Scientific, Waltham, Mass., USA), 0.1 mM NEAA (Thermo Fisher Scientific), 1 mM sodium pyruvate (Thermo Fisher Scientific), and 10 μg/mL insulin (Sigma, St. Louis, Mo., USA). KPL-3C cells were seeded in RPMI (Thermo Fisher Scientific) supplemented with 10% FBS and 1% Antibiotic/Antimycotic solution. MCF-10A cells were seeded in MEBM (Lonza) supplemented with a Single Quots kit (BPE, hydrocortisone, hEGF, insulin, gentamycin/amphoterin-B) (Lonza, Walkersville, Md., USA) and 100 ng/mL cholera toxin. For 17β-estradiol (E2) (Sigma) stimulation, the media for MCF-7 and KPL-3C were changed to phenol red-free DMEM/F12 (Thermo Fisher Scientific) supplemented with 10% FBS, 1% Antibiotic/Antimycotic solution, 0.1 mM NEAA, 1 mM sodium pyruvate, and 10 μg/mL insulin on the day after seeding. Twenty-four hours later, the cells were treated with 10 nM E2 and a peptide (for example, 11R-ERAP or a stapled ERAP), or with 10 nM E2 alone.
When carrying out treatment with tamoxifen (Sigma) or fulvestrant (LKT laboratories, St. Paul, Minn., USA), cells were treated with 10 nM tamoxifen or 2 μM fulvestrant simultaneously with the above-mentioned treatment with E2 and a peptide or with E2 alone.
Cell growth assays on MCF-7, KPL-3C, and MCF-10A were carried out as described previously using a Cell Counting Kit-8 (CCK-8) (Dojindo, Kumamoto, Japan) (T. Yoshimaru, et al., Nat. Commun. 4, 2443 (2013)). The data are shown by mean±SE of three independent experiments.

[2] = system: MCF-10A cells; experiment: Cell growth (MTT) assay, MCF-10A cells; assay type: cell-based, human; conditions: normal mammary epithelial cells, ERα-negative and BIG3-negative
Experimental: as §1
as §2, with “For 17β-estradiol (E2) (Sigma) stimulation, the media for MCF-7 and KPL-3C were changed to phenol red-free DMEM/F12 (Thermo Fisher Scientific) supplemented with 10% FBS, 1% Antibiotic/Antimycotic solution, 0.1 mM NEAA, 1 mM sodium pyruvate, and 10 μg/mL insulin on the day after seeding. Twenty-four hours later, the cells were treated with 10 nM E2 and a peptide (for example, 11R-ERAP or a stapled ERAP), or with 10 nM E2 alone.” left out

[3] = biological target: T1, BIG3-PHB2 interaction (Homo sapiens, UniProt Q99623); experiment: Co-immunoprecipitation with anti-BIG3 antibody in MCF-7 cells; assay type: cell-based; conditions: MCF-7, 1 μM, 24 hours after treatment
T1 construct: complex formation between the endogenous BIG3 and PHB2 in ERα-positive breast cancer cell line MCF-7; endogenous in cells; host or cells: MCF-7
T1 sequence (Q99623 2-299 limits assumed): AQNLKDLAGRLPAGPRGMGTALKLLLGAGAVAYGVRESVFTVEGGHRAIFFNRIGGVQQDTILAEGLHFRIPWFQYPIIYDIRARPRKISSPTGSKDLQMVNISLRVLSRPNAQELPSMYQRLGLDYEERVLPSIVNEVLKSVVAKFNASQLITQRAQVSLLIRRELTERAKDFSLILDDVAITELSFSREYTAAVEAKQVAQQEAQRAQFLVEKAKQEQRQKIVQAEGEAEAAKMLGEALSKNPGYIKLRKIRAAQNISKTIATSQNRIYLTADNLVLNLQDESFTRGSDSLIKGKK
Experimental: Immunoblot analyses were performed as described previously (T. Yoshimaru, et al., Nat. Commun. 4, 2443 (2013)). After performing SDS-PAGE, the membranes blotted with proteins were blocked with 4% BlockAce solution (Dainippon Pharmaceutical, Osaka, Japan) for three hours and then incubated with antibodies against the following proteins: BIG3 (1:1,000) (T. Yoshimaru, et al., Nat. Commun. 4, 2443 (2013)); PHB2 (1:1,000) (Abeam, Cambridge, UK); Akt, phosphorylated Akt (S473) (587F11, 1:1,000); p44/42 MAPK, phosphorylated p44/42 MAPK (T202/Y204) (1:1,000); α/β-tubulin (1:1,000) (Cell Signaling Technology, Danvers, Mass., USA); and LMNB1 (1:100) (Sigma). After incubation with an HRP-labeled secondary antibody (anti-mouse IgG-HRP, 1:5,000; anti-rat IgG-HRP; 1:5,000; or anti-rabbit IgG-HRP, 1:1,000) (Santa Cruz Biotechnology, Dallas, Tex., USA) for one hour, the blots were developed with an Enhanced Chemiluminescence (ECL) system (GE Healthcare, Buckinghamshire, UK) and scanned using an Image Reader LAS-3000 mini (Fujifilm, Tokyo, Japan). All the experiments were performed at least in triplicate.
Immunoprecipitation analysis was performed as described previously (T. Yoshimaru, et al., Nat. Commun. 4, 2443 (2013)). Cell lysates were pre-cleared with normal IgG and rec-Protein G Sepharose 4B (Thermo Fisher Scientific) at 4° C. for three hours. Then, the supernatants were incubated with 5 μg of an antibody against BIG3 or an antibody against PHB2 at 4° C. for twelve hours. Next, the antigen-antibody complexes were precipitated using rec-Protein G Sepharose 4B at 4° C. for one hour. The immunoprecipitated protein complexes were washed several times with a lysis buffer. Then, SDS-PAGE and immunoblot analyses were carried out as described above.

[4] = system: KPL-3C orthotopic breast cancer xenografts; experiment: In vivo tumor growth inhibition, KPL-3C orthotopic xenograft, intraperitoneal; set-up: species or system BALB/c nude mice; conditions: 1 mg/kg or 0.1 mg/kg i.p. every four or seven days, up to 28 days
Experimental: KPL-3C cell suspensions (1×10^7 cells/mouse) were mixed with an equal volume of Matrigel (BD) and injected (200 μL in total) into the mammary fat pads of 6-week-old female BALB/c nude mice (Charles River Laboratories, Tokyo, Japan). The mice were housed in a pathogen-free isolation facility with a twelve-hour light/dark cycle and were fed solid rodent chow and water ad libitum. The tumors developed over several days and reached sizes of approximately 100 mm^3 [calculated as ½×(width×length^2)]. The mice were randomized into the following eleven treatment groups (five heads per group):
E2 was administered via application of a solution to the neck skin, and regarding the other treatments, administration was performed via intraperitoneal injection unless other administration methods are stated. The tumor volume was measured with calipers for 28 days, and then the mice were subjected to scheduled sacrifice to remove tumors. All the experiments were performed in accordance with the guidelines of the animal facility at Tokushima University.

[5] = system: ERα target genes TFF1 and CCND1; experiment: ERα target gene expression in removed tumors; assay type: in vivo, BALB/c nude mice; conditions: 0.02, 0.1 or 1 mg/kg i.p. every four days or every seven days
Experimental: The expression of the ERα target genes (TFF1 and CCND1) was evaluated by real-time RT-PCR as described previously (T. Yoshimaru, et al., Nat. Commun. 4, 2443 (2013)). Each sample was normalized to the β2-MG mRNA content, and the results were expressed as multiples (-fold) of the expression level in untreated cells, with that level being defined as 1.0. The data represent the mean±SD of three independent experiments. The primers used for RT-PCR were as follows: […]

For `CSCC[C@@H](NC(=O)[C@H]1CCC(=O)NCCCCNC(=O)CC[C@@H](NC(=O)[C@@H](CC(C)C)NC(=O)[C@@H](CCC(N)=O)NC(=O)[C@@H](CC(C)C)NC(=O)[C@@H](CCCNC(=N)N)NC(=O)[C@@H](CCC(N)=O)NC(=O)[C@@H](CCCNC(=N)N)NC(C)=O)C(=O)N[C@H](CC(C)C)C(=O)N[C@H](CC(=O)O)C(=O)N[C@H](CO)C(=O)N1)C(=O)N[C@H](CCC(N)=O)C(N)=O` [RI stapled ERAP No. 12], the “duration of significant cell growth inhibitory effects” value ([1]; 1 μM, E2-dependent growth of MCF-7) was “seven”, the IC50 ([1]; 96 h) was 500 nM and the “effect on MCF-10A cell growth” value [2] was “not inhibited”. The “inhibition of endogenous BIG3-PHB2 complex formation” value [3] was “inhibited endogenous BIG3-PHB2 complex formation”, the E2-dependent tumor growth [4] was “almost fully inhibited” and the “E2-dependent expression of TFF1 and CCND1 in tumors” value [5] was “significantly suppressed”.
